Assay results published in the NIST ThermoML archive (doi:10.1021/je800110r).
Numbers after ± are expanded uncertainties.

Settings: 293.15 K, Liquid, Vibrating tube method

Measured: mass density

CCCCCCCCCC [decane]
735.7 ± 2 kg/m3: 7621 kPa | 7665 kPa | 7732 kPa | 7748 kPa | 7769 kPa | 7789 kPa
735 ± 2 kg/m3: 6773 kPa | 6816 kPa | 6848 kPa | 6876 kPa | 6897 kPa | 7001 kPa
737.1 ± 2 kg/m3: 9562 kPa | 9615 kPa | 9642 kPa | 9666 kPa | 9743 kPa
734.9 ± 2 kg/m3: 6794 kPa
737.5 ± 2 kg/m3: 10193 kPa | 10218 kPa
738 ± 2 kg/m3: 10824 kPa | 10842 kPa | 10892 kPa | 10913 kPa | 10966 kPa
739 ± 2 kg/m3: 12187 kPa | 12285 kPa | 12301 kPa
735.2 ± 2 kg/m3: 6922 kPa | 6945 kPa | 6978 kPa | 7028 kPa | 7069 kPa | 7097 kPa | 7137 kPa
738.1 ± 2 kg/m3: 10879 kPa | 10950 kPa | 10985 kPa | 11001 kPa | 11023 kPa | 11061 kPa | 11081 kPa | 11094 kPa | 11111 kPa | 11170 kPa | 11255 kPa
736.2 ± 2 kg/m3: 8289 kPa | 8324 kPa | 8342 kPa | 8373 kPa | 8396 kPa | 8414 kPa | 8435 kPa | 8456 kPa | 8490 kPa | 8512 kPa | 8530 kPa
736.1 ± 2 kg/m3: 8013 kPa | 8137 kPa | 8178 kPa | 8213 kPa | 8234 kPa | 8249 kPa | 8265 kPa | 8309 kPa | 8357 kPa
735.1 ± 2 kg/m3: 6746 kPa
735.9 ± 2 kg/m3: 7910 kPa | 7929 kPa | 7943 kPa | 7963 kPa | 8030 kPa | 8102 kPa | 8114 kPa
737.3 ± 2 kg/m3: 9767 kPa | 9799 kPa | 9821 kPa | 9853 kPa | 9897 kPa | 9920 kPa | 9953 kPa
737.8 ± 2 kg/m3: 10428 kPa | 10461 kPa | 10516 kPa | 10550 kPa | 10570 kPa | 10587 kPa | 10625 kPa | 10661 kPa | 10679 kPa | 10768 kPa | 10803 kPa
736.5 ± 2 kg/m3: 8715 kPa | 8777 kPa | 8801 kPa | 8844 kPa | 8867 kPa | 8885 kPa | 8925 kPa | 8967 kPa
737.7 ± 2 kg/m3: 10358 kPa | 10372 kPa | 10406 kPa | 10443 kPa | 10498 kPa | 10533 kPa | 10602 kPa
739.2 ± 2 kg/m3: 12263 kPa
738.2 ± 2 kg/m3: 11045 kPa | 11131 kPa | 11235 kPa | 11281 kPa | 11304 kPa
738.8 ± 2 kg/m3: 11950 kPa | 11966 kPa | 11987 kPa | 12028 kPa | 12089 kPa | 12131 kPa | 12152 kPa | 12170 kPa
735.6 ± 2 kg/m3: 7438 kPa | 7485 kPa | 7500 kPa | 7514 kPa | 7544 kPa | 7573 kPa | 7586 kPa | 7603 kPa | 7636 kPa | 7649 kPa | 7685 kPa | 7701 kPa | 7716 kPa
736 ± 2 kg/m3: 7997 kPa | 8048 kPa | 8065 kPa | 8080 kPa | 8160 kPa | 8196 kPa
736.7 ± 2 kg/m3: 9119 kPa | 9235 kPa
735.5 ± 2 kg/m3: 7414 kPa | 7460 kPa | 7532 kPa | 7559 kPa
738.3 ± 2 kg/m3: 11156 kPa | 11193 kPa | 11210 kPa | 11324 kPa | 11348 kPa | 11366 kPa | 11408 kPa | 11443 kPa
737.2 ± 2 kg/m3: 9687 kPa | 9718 kPa | 9871 kPa
738.6 ± 2 kg/m3: 11645 kPa | 11684 kPa | 11701 kPa | 11721 kPa | 11740 kPa | 11758 kPa | 11775 kPa | 11793 kPa | 11810 kPa | 11888 kPa
737.9 ± 2 kg/m3: 10645 kPa | 10697 kPa | 10715 kPa | 10735 kPa | 10753 kPa | 10787 kPa | 10860 kPa | 10929 kPa
738.9 ± 2 kg/m3: 12070 kPa | 12110 kPa | 12201 kPa | 12219 kPa | 12238 kPa
736.9 ± 2 kg/m3: 9280 kPa | 9350 kPa | 9370 kPa | 9426 kPa | 9446 kPa | 9469 kPa | 9492 kPa
738.5 ± 2 kg/m3: 11511 kPa | 11543 kPa | 11574 kPa | 11596 kPa | 11613 kPa | 11664 kPa
735.3 ± 2 kg/m3: 7050 kPa | 7122 kPa | 7187 kPa | 7209 kPa | 7232 kPa
737.6 ± 2 kg/m3: 10165 kPa | 10248 kPa | 10278 kPa | 10298 kPa | 10313 kPa | 10327 kPa | 10344 kPa | 10389 kPa | 10481 kPa
738.4 ± 2 kg/m3: 11387 kPa | 11425 kPa | 11460 kPa | 11479 kPa | 11492 kPa | 11524 kPa | 11560 kPa | 11628 kPa
737 ± 2 kg/m3: 9324 kPa | 9397 kPa | 9512 kPa | 9533 kPa | 9590 kPa
736.4 ± 2 kg/m3: 8615 kPa | 8638 kPa | 8657 kPa | 8696 kPa | 8735 kPa | 8752 kPa
735.8 ± 2 kg/m3: 7803 kPa | 7824 kPa | 7837 kPa | 7854 kPa | 7873 kPa | 7889 kPa | 7982 kPa
738.7 ± 2 kg/m3: 11828 kPa | 11845 kPa | 11861 kPa | 11904 kPa | 11927 kPa | 12010 kPa | 12049 kPa
735.4 ± 2 kg/m3: 7168 kPa | 7257 kPa | 7276 kPa | 7295 kPa | 7318 kPa | 7338 kPa | 7360 kPa | 7390 kPa
736.8 ± 2 kg/m3: 9077 kPa | 9137 kPa | 9159 kPa | 9178 kPa | 9206 kPa | 9251 kPa | 9302 kPa
736.3 ± 2 kg/m3: 8469 kPa | 8552 kPa | 8577 kPa | 8591 kPa | 8679 kPa
737.4 ± 2 kg/m3: 9986 kPa | 10009 kPa | 10042 kPa | 10073 kPa | 10096 kPa | 10134 kPa
736.6 ± 2 kg/m3: 8818 kPa | 8905 kPa | 8946 kPa | 8985 kPa | 9006 kPa | 9033 kPa | 9054 kPa | 9098 kPa
